Source: ChEMBL document CHEMBL3301361, “Experimental in vitro DMPK and physicochemical data on a set of publicly disclosed compounds”
≈ marks a conversion by molar mass, not a printed value.

Test: physchem
Conditions: pH 7.4 buffer

| SMILES | solubility thermodynamic [µM] |
| --- | --- |
| N#CC1(NC(=O)[C@@H]2CCCC[C@H]2C(=O)N2CCc3[nH]c4c(F)cccc4c3C2)CC1 | 479 (≈ 195 µg/mL) |
| COc1cc(Nc2ncnc3[nH]nc(OCCN4CCC(O)CC4)c23)ccc1OCc1cccc(F)c1 | 5.6 (≈ 2.85 µg/mL) |
| CN1CCC(Oc2cccc3ncnc(Nc4ccc(OCc5cscn5)c(Cl)c4)c23)CC1 | 4.9 (≈ 2.36 µg/mL) |
| Cc1ccc(Oc2ccc(Nc3ncnc4cccc(O[C@H](C)C(=O)N5CCOCC5)c34)cc2Cl)cn1 | 2.3 (≈ 1.2 µg/mL) |
| Cc1ccc(Nc2nc(C)nc3c2oc2ccccc23)cc1 | 0.5 (≈ 0.145 µg/mL) |
| O=C(Nc1ccc(N2CC[S+]([O-])CC2)nc1)c1nnc(Nc2ccccc2F)o1 | 2.5 (≈ 1.04 µg/mL) |
| COC[C@H](C)Oc1cc(Oc2cccc(N(C)C)c2)cc(C(=O)Nc2ccc(C(=O)O)cn2)c1 | 1350 (≈ 628 µg/mL) |
| O=C(c1ccc(F)cc1)C1CCN(C(=O)c2ccc(Cl)c(Cl)c2)CC1 | 0.8 (≈ 0.304 µg/mL) |
| COc1ccc(N2CCN(C(=O)[C@@H]3CCCC[C@H]3C(=O)NCC#N)CC2)cc1 | 389 (≈ 150 µg/mL) |
| CN(C)C(=O)[C@H](Cc1ccccc1)NC(=O)c1cc2cc(Cl)ccc2[nH]1 | 2.6 (≈ 0.962 µg/mL) |
| COCCN(C)S(=O)(=O)c1ccc(Nc2nccc(-c3cnc(C)n3C)n2)cc1 | 56.2 (≈ 23.4 µg/mL) |
| Cc1ccc(CO)cc1N(C)c1ccnc(Nc2cc(N3CCOCC3)cc(S(C)(=O)=O)c2)n1 | 15.8 (≈ 7.64 µg/mL) |
| CC#CC(=O)Nc1ccc2ncnc(Nc3cccc(Br)c3)c2c1 | 0.8 (≈ 0.305 µg/mL) |
| COc1cc(Oc2ccc(C(=O)NCc3ccncc3)cc2)ccc1[N+](=O)[O-] | 21.4 (≈ 8.12 µg/mL) |
| CNC(=O)[C@@H](NC(=O)[C@H](CC(C)C)[C@H](OCc1cccc2cccnc12)C(=O)NO)C(C)(C)C | 1000 (≈ 473 µg/mL) |
| CCOC(=O)c1nn(-c2ccccc2)c(=O)c2c(N)scc12 | 6.2 (≈ 1.96 µg/mL) |
| COc1cc2c(Nc3cc(CC(=O)Nc4cccc(F)c4)[nH]n3)ncnc2cc1OCCCNCCO | 219 (≈ 111 µg/mL) |
| CC1(C)SCCN(S(=O)(=O)c2ccc(Oc3ccncc3)cc2)[C@H]1C(=O)NO [PRINOMASTAT] | 69.2 (≈ 29.3 µg/mL) |
| Cc1ccc(C(=O)N2CCC(C(=O)c3c(C)cc(C)cc3C)CC2)cc1 | 9.3 (≈ 3.25 µg/mL) |
| COc1cc(N2CC3COCC(C2)N3)ccc1Nc1ncc(Cl)c(-c2cnc3ccccn23)n1 | 2.6 (≈ 1.24 µg/mL) |
| Oc1ccc(-n2ccnc2)cc1 | 1260 (≈ 202 µg/mL) |
| CCCCC(CC)CNC(=O)c1ccc2c(c1)c(Cc1ccc(C(=O)NS(=O)(=O)c3ccccc3C)cc1OC)cn2C (configuration not stated) | 6.5 (≈ 3.92 µg/mL) |
| CN(C)C(=O)[C@H](Cc1ccccc1)NC(=O)c1cc2cc(Br)sc2[nH]1 | 0.9 (≈ 0.378 µg/mL) |

| SMILES | solubility thermodynamic [µM] |
| --- | --- |
| COc1cc(Oc2ccnc3cc(OC)c(OC)cc23)ccc1CC(=O)Nc1cn(C)nc1C | 8.9 (≈ 4.12 µg/mL) |
| Cc1cc(C)cc(-c2[nH]c3sc(C(C)(C)C(=O)N4C5CCC4CC5)cc3c2CCN2CCC(CC(=O)N3CCOCC3)CC2)c1 | 1.9 (≈ 1.2 µg/mL) |
| CCN(C(=O)Cc1ccc(S(C)(=O)=O)cc1)C1CCN(CCC(c2ccccc2)N2CCN(c3cccc(F)c3)CC2)CC1 (configuration not stated) | 144 (≈ 89.7 µg/mL) |
| Cc1ccc(Oc2ccc(Nc3ncnc4cccc(O[C@H](C)C(=O)NCCO)c34)cc2C)cn1 | 4.2 (≈ 1.99 µg/mL) |
| Cc1cc(F)ccc1CCC1CCN(S(=O)(=O)CC2(N(O)C=O)CCOCC2)CC1 | 13.8 (≈ 6.11 µg/mL) |
| CN(c1ccnc(Nc2cccc(S(C)(=O)=O)c2)n1)c1c(Cl)ccc2c1OCO2 | 3.5 (≈ 1.52 µg/mL) |
| C[C@@H](Oc1cccc2ncnc(Nc3ccc4c(cnn4Cc4ccccn4)c3)c12)C(=O)N1CCCC1 | 110 (≈ 54.1 µg/mL) |
| O=C(c1ccccc1)C1CCN(C(=O)c2c(F)cccc2F)CC1 | 13.2 (≈ 4.35 µg/mL) |
| O=S(=O)(c1ccc(F)cc1)N1CCCN(c2nccc(C(F)(F)F)n2)CC1 | 0.9 (≈ 0.364 µg/mL) |
| COc1cc(CCc2cc(Nc3ccnc(NCc4cc(C)on4)n3)n[nH]2)cc(OC)c1 | 4.3 (≈ 1.87 µg/mL) |
| O=C(O)c1cc2c(F)cccc2n1Cc1ccc(Cl)c(Cl)c1 | 525 (≈ 177 µg/mL) |
| COc1ccc(-c2cnn(C3CCS(=O)(=O)C3)c2N)cc1 (configuration not stated) | 81.3 (≈ 25 µg/mL) |
| COC[C@H](C)Oc1cc(O[C@@H](C)Cc2ccccc2OC)cc(C(=O)Nc2ccc(C(=O)O)cn2)c1 | 589 (≈ 291 µg/mL) |
| COc1ccccc1Oc1coc2cc(O)ccc2c1=O | 12.9 (≈ 3.67 µg/mL) |
| COc1ccc(Cn2c(CCc3c[nH]c4ccccc34)nnc2[C@@H](Cc2c[nH]c3ccccc23)NC(=O)C2CCNCC2)c(OC)c1 | 550 (≈ 347 µg/mL) |
| COc1cc(N2CCOCC2)ccc1Nc1ncc(Cl)c(-c2cnc3ccccn23)n1 | 16.2 (≈ 7.08 µg/mL) |
| COC[C@H](C)Oc1cc(Oc2cccc(Cl)c2)cc(C(=O)Nc2ccc(C(=O)O)cn2)c1 | 1170 (≈ 537 µg/mL) |
| CN(C)CCNS(=O)(=O)c1ccc(Nc2nccc(-c3cnc4cccnn34)n2)cc1 | 93.3 (≈ 40.9 µg/mL) |
| COc1cc2c(Nc3ncc(CNS(=O)(=O)c4cccc(F)c4)s3)ncnc2cc1OCCCN1CCC(CO)CC1 | 302 (≈ 186 µg/mL) |
| C[C@H](Oc1cccc2ncnc(Nc3ccc4c(cnn4Cc4cscn4)c3)c12)C(=O)N(C)C | 42.7 (≈ 20.2 µg/mL) |
| C[C@@H]1CN(C(=O)OC(C)(C)C)CCN1c1ncc(OCc2ccc(S(C)(=O)=O)cc2F)cn1 | 2.2 (≈ 1.06 µg/mL) |
| COc1c(C)c2c(c(O)c1C/C=C(\C)CCC(=O)NO)C(=O)OC2 [MYCOPHENOLIC HYDROXAMIC ACID] | 1000 (≈ 335 µg/mL) |
| CNC(=O)N1c2ccccc2C=Cc2ccccc21 | 380 (≈ 95.2 µg/mL) |

| SMILES | solubility thermodynamic [µM] |
| --- | --- |
| COc1ccc2oc(=O)c(C(C)=O)cc2c1 | 49 (≈ 10.7 µg/mL) |
| Cc1ccc2nc(C)c(-c3ccnc(N)n3)n2c1 | 457 (≈ 109 µg/mL) |
| N#CC1(NC(=O)[C@@H]2CCCC[C@H]2C(=O)N2CCN(c3nc(-c4ccccc4)cs3)CC2)CC1 | 95.5 (≈ 44.3 µg/mL) |
| COc1cc2ncnc(Nc3cc(NC(=O)c4ccccc4)ccc3Cl)c2cc1OC | 10 (≈ 4.35 µg/mL) |
| O=S(=O)(NCCNC/C=C/c1ccc(Br)cc1)c1cccc2cnccc12 | 61.7 (≈ 27.5 µg/mL) |
| N#CC1(NC(=O)[C@@H]2CCCC[C@H]2C(=O)N2CCc3oc4ccccc4c3C2)CC1 | 575 (≈ 225 µg/mL) |
| COCC(C)(C)Oc1cc(O[C@@H](C)Cc2ccccc2)cc(C(=O)Nc2ccc(C(=O)O)cn2)c1 | 190 (≈ 91.2 µg/mL) |
| CC(C)S(=O)(=O)C1(c2cc(N3CCOCC3)nc(-c3cccc4[nH]ccc34)n2)CC1 | 1.5 (≈ 0.64 µg/mL) |
| COC1=C(c2ccccc2)C(=O)c2ccccc2C1=O | 8.1 (≈ 2.14 µg/mL) |
| Cc1ccc(/C=C2\SC(=O)NC2=O)cc1 | 85.1 (≈ 18.7 µg/mL) |
| C[C@@H]1CN(C(=O)OC(C)(C)C)C[C@H](C)N1c1ncc(OCc2ccc(S(C)(=O)=O)cc2)cn1 | 4.1 (≈ 1.95 µg/mL) |
| CN1CCN(CCCOc2cc(OC3CCOCC3)c3c(Nc4ccc(F)c(Cl)c4)ncnc3c2)CC1 | 38 (≈ 20.1 µg/mL) |
| CC(C)Oc1cc(OCCc2ccccc2)cc(C(=O)Nc2ccc(C(=O)O)cn2)c1 | 28.8 (≈ 12.1 µg/mL) |
| CNC(=O)c1ccc(CN2CCC(c3ccc(C(=O)Nc4ccccc4N)cc3)CC2)cc1 | 4.8 (≈ 2.12 µg/mL) |
| Cc1cc(C)cc(-c2[nH]c3sc(C(C)(C)C(=O)N4C5CCC4CC5)cc3c2C(=O)CN2CCC(C(=O)N3CCOCC3)CC2)c1 | 72.4 (≈ 45.7 µg/mL) |
| O=C(NCc1ccccc1)c1ccc(=O)oc1 | 135 (≈ 30.9 µg/mL) |
| OC1CCN(CCOc2n[nH]c3ncnc(Nc4ccc(OCc5cccc(F)c5)c(Cl)c4)c23)CC1 | 4.5 (≈ 2.31 µg/mL) |
| O=c1c2ccccc2oc2ccccc12 [XANTHONE] | 20 (≈ 3.92 µg/mL) |
| CS(=O)(=O)Cc1cc(N2CCOCC2)nc(-c2ccc(NS(C)(=O)=O)cc2)n1 | 11.2 (≈ 4.78 µg/mL) |
| O=c1cc(CN2CCOCC2)occ1OCCCCCSc1ccnc2cc(C(F)(F)F)ccc12 | 77.6 (≈ 39.5 µg/mL) |
| COc1cc2c(Nc3c(Cl)ccc4c3OCO4)ncnc2cc1OCc1ccnc(C#N)c1 | 10.2 (≈ 4.71 µg/mL) |
| CCCN(CCO)CCCOc1ccc2c(Nc3cc(CC(=O)Nc4cccc(F)c4)[nH]n3)ncnc2c1 | 112 (≈ 58.5 µg/mL) |
| COc1cc(N2CCN(CC(=O)N(C)C)CC2)ccc1Nc1ncc(Cl)c(-c2cnc3ccccn23)n1 | 5 (≈ 2.61 µg/mL) |

| SMILES | solubility thermodynamic [µM] |
| --- | --- |
| CN(C(=O)Cc1ccc(-n2cnnn2)cc1)[C@@H]1CCN(Cc2ccc(C(F)(F)F)nc2)C[C@@H]1F | 95.5 (≈ 45.6 µg/mL) |
| CCC[C@@H]1O[C@@H]2C[C@H]3[C@@H]4CCC5=CC(=O)C=C[C@]5(C)[C@H]4[C@@H](O)C[C@]3(C)[C@]2(C(=O)CO)O1 [DEXBUDESONIDE] | 19.5 (≈ 8.4 µg/mL) |
| O=C(c1ccc(F)cc1)C1CCN(C(=O)N2CCOCC2)CC1 | 1150 (≈ 368 µg/mL) |
| CCOc1cc2ncc(C#N)c(Nc3ccc(F)c(Cl)c3)c2cc1NC(=O)/C=C/CN(C)C [PELITINIB] | 1.5 (≈ 0.702 µg/mL) |
| CNC(=O)[C@@H](NC(=O)[C@H](CC(C)C)[C@H](Sc1ccc(OC)c(OC)c1)C(=O)NO)C(C)(C)C | 1290 (≈ 623 µg/mL) |
| CN1CCC(c2cc(N3CCOCC3)nc(-c3cccc4[nH]ccc34)n2)(S(C)(=O)=O)CC1 | 21.4 (≈ 9.75 µg/mL) |
| NC(=O)Nc1sc(-c2ccccc2)cc1C(=O)Nc1ccccc1 | 0.6 (≈ 0.202 µg/mL) |
| NC(=O)Nc1sc(-c2ccc(F)cc2)cc1C(N)=O | 67.6 (≈ 18.9 µg/mL) |
| CCC(=O)Nc1c(C#N)c2nc3ccccc3nc2n1-c1ccccc1C | 13.5 (≈ 4.8 µg/mL) |
| Cc1c(-c2ccc(O)cc2)n(Cc2ccc(OCCN3CCCCCC3)cc2)c2ccc(O)cc12 [BAZEDOXIFENE] | 5.2 (≈ 2.45 µg/mL) |
| COc1cc2c(Nc3ccc(Cc4ccccc4)cc3)c(C#N)cnc2cc1OCCCN1CCOCC1 | 0.6 (≈ 0.305 µg/mL) |
| N#Cc1ccccc1COc1cc(OCCCN2CCCC2)ccc1C(=O)Nc1ccccc1 | 34.7 (≈ 15.8 µg/mL) |
| COc1cc2ncnc(Nc3cc(O)c(C)cc3F)c2cc1OC | 2.2 (≈ 0.725 µg/mL) |
| NC1(c2ccc(-c3nn4cccc4cc3-c3ccccc3)cc2)CCC1 | 26.3 (≈ 8.93 µg/mL) |
| COc1ccc(-c2[nH]nc3c2C(=O)c2ccccc2-3)cc1 | 0.3 (≈ 0.0829 µg/mL) |
| O=C1NC(=O)C2(CCc3ccccc3C2)N1 (configuration not stated) [TETRANTOIN] | 224 (≈ 48.4 µg/mL) |
| Cc1nc(-c2ccc(CN3CCC(N(C)C(=O)Cc4ccc(-n5cnnn5)cc4)CC3)cc2)no1 | 10.2 (≈ 4.82 µg/mL) |
| O=c1[nH]c2cc(Cl)c([N+](=O)[O-])cc2c(O)c1-c1ccccc1 | 29.5 (≈ 9.34 µg/mL) |
| COc1cc(N2CCN(C(C)=O)CC2)ccc1Nc1ncc(F)c(-c2cnc3ccccn23)n1 | 14.5 (≈ 6.69 µg/mL) |
| Clc1ccc(-c2nnc(CNC3CC3)o2)cc1 | 1230 (≈ 307 µg/mL) |
| N#CC1(NC(=O)[C@@H]2CCCC[C@H]2C(=O)N2CCc3[nH]c4ccc(C(F)(F)F)cc4c3C2)CC1 | 74.1 (≈ 34 µg/mL) |
| Cc1cc(C)c(N2C(=O)CC(Sc3ccccc3N)C2=O)c(C)c1 (configuration not stated) | 9.3 (≈ 3.17 µg/mL) |
| O=c1cc(-c2cccnc2)[nH]c2ccccc12 | 1350 (≈ 300 µg/mL) |
